Literature values in patent US10639343B2, “Preparation method of Gynostemma pentaphyllum leaves extract and Gynostemma pentaphyllum extract prepared by the method thereof” (BTC CORPORATION, priority 2018, dated 2020).

Details: intraperitoneal injection, without training

In the case of `NC(=O)c1ncn([C@@H]2O[C@H](COP(=O)(O)O)[C@@H](O)[C@H]2O)c1N` [AICAR, 5-aminoimidazole-4-carboxamide ribonucleotide], the “increase of the distance of exercise performance” value is listed as 44%.
